This passage reports TGI results from PubChem BioAssay (NCI).

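Exposure lasted 48 hours, with cells grown in 96-well plates and compounds tested at five concentrations. The concentration for full growth arrest is given as TGI.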 Where a SMILES comes first, the peptide text is derived from it. The star is where a group is joined. Boc = CC(C)(C)OC(=O)*

What all share (test): NCI tumour cell line growth inhibition, 48 h
For test [1], the system named is SF-539 CNS.
Test [2] has as its system K-562 leukemia.
For test [3], the system named is SK-MEL-2 melanoma.
The subject of test [4] is MCF7 breast.
Test [5] deals with OVCAR-4 ovarian.

Consider `CSc1nncc2[nH]cnc12`, for which the TGI in test [1], in test [2], in test [3] and in test [4] was above 100 µM throughout.
Take `CCN(CC)CCSc1nc2c(c(=N)n1-c1ccccc1)c(=S)n(-c1ccccc1)c(=S)n2-c1ccccc1`: the TGI in test [5] turned out to be 7.87 µM; in test [1], 9.57 µM; in test [2] it was 2.5 µM; in test [3] it was 20.4 µM.
For `CCOC(=O)C(C)(C)/C=C\C(Cl)=C(Cl)Cl`, the TGI in test [1] and in test [2] was above 100 µM each time.
`CC(=O)NNC(=S)/N=C/c1c(O)cc(C)oc1=O`: the TGI in test [5], in test [1], in test [3] and in test [4] was above 100 µM each time.
Turning to `Cc1cc(O)c(/C=N/c2nc(-c3cccc([N+](=O)[O-])c3)cs2)c(=O)o1`, the TGI in test [5], in test [1], in test [3] and in test [4] was above 100 µM in each case.
Regarding `O=C(O)c1cc(O)c2c(c1)Cc1cccc(O)c1C2=O`, the TGI in test [5], in test [2] and in test [4] was above 100 µM throughout.
As for `O=C1CC(c2ccc[nH]2)=NN1c1ccccc1`, the TGI in test [5], in test [1], in test [2] and in test [3] was above 100 µM throughout.
As for `CCOCC(NC(=O)C(CC(C)C)NC(=O)OC(C)(C)C)C(N)=O` (stereo not drawn) (Boc-Leu-Ser(Et)-NH2; configuration not given here), the TGI in test [5], in test [1], in test [3] and in test [4] was above 100 µM in each case.
Consider `CC1(C)C[C@H](O)[C@H](O)[C@]23C(=O)O[C@H](O)[C@H]2C(C=O)=CC[C@@H]13`, for which the TGI in test [1], in test [2] and in test [4] was above 100 µM each time.
In the case of `O=c1c(-c2ccccc2Cl)coc2cc(F)ccc12`, the TGI in test [5] is above 100 µM; in test [1], 31.6 µM; in test [3] it was above 100 µM; in test [4], above 100 µM.
As to `CN[C@@H](C)[C@H](OP(=O)(O)OC1[C@@H](O)[C@H](O)C(O)[C@H](O)[C@@H]1O)c1ccccc1` (some centres undefined), the TGI in test [5], in test [1], in test [3] and in test [4] was above 100 µM throughout.
Consider `CC(=N/NC(=S)N1CCCCC1)/C(C)=N\NC(=S)N1CCCCC1`, for which the TGI in test [5] is 3.46 µM; in test [1] it was 5.58 µM; in test [2] it was 6.89 µM; in test [3], 4.65 µM.
`O=C(NCCCCNCCCNC(=O)c1cc(-c2ccccc2)nc2ccccc12)c1cc(-c2ccccc2)nc2ccccc12`: the TGI in test [1] was found to be 3.81 µM; in test [3] it was 3.49 µM; in test [4] it was 3.07 µM.
In the case of `CCn1c(-c2ccc(C)cc2)cs/c1=N\C(P(=O)(O)O)P(=O)(O)O`, the TGI in test [1], in test [2] and in test [4] was above 100 µM in each case.
Take `O=C1/C(=C/c2cccs2)NC(=S)N1CN1CCOCC1`: the TGI in test [2], in test [3] and in test [4] was above 100 µM throughout.
As to `Cn1c2ccccc2n2c(=O)c3cccnc3c(C#N)c12`, the TGI in test [5] and in test [1] was above 100 µM throughout.
As to `CC(=O)O[C@H]1CC[C@@]2(C)C(=CC[C@@H]3[C@@H]2CC[C@]2(C)c4c(cc(C#N)c(=N)n4C(C)=O)C[C@@H]32)C1`, the TGI in test [5] is 39.4 µM; in test [2], above 100 µM; in test [4], 47.2 µM.
Consider `COC(=O)c1ccc(CCc2cc(O)c(Br)cc2O)cc1`, for which the TGI in test [5] worked out at 23.2 µM; in test [1], 20.7 µM; in test [3] it was 39.1 µM; in test [4] it was 28.1 µM.
`C=Cc1cc2c(cc1O)CC[C@@H]1[C@@H]2CC[C@]2(C)[C@@H](O)CC[C@@H]12`: the TGI in test [5] is 26.9 µM; in test [1] it was 5.53 µM; in test [2], 20.4 µM; in test [3], 21.1 µM.
On to `COc1ccc2c(c1)CCCN1CCc3cc(OC)c(OC)cc3C21` (centres undefined), for which the TGI in test [1], in test [2] and in test [4] was above 100 µM in each case.
For the molecule `S=C(c1c[nH]c2ccccc12)N1CCN(c2ccccc2)CC1`, the TGI in test [1], in test [2], in test [3] and in test [4] was above 100 µM each time.
For `CC1C(c2ccc3c(c2)OCO3)c2cc3c(cc2OC1N1CCCCC1)OCO3` (centres undefined), the TGI in test [1], in test [2], in test [3] and in test [4] was above 100 µM throughout.
Regarding `Fc1cc(-c2ncc(Cl)cc2Cl)c2cccccc1-2`, the TGI in test [1] and in test [4] was above 100 µM throughout.
